The structures appear in SMILES notation. Entries after “also recorded” stand apart in the source; their conditions may differ. Where a SMILES comes first, the peptide text is derived from it.

Series [1] concerns B16F10 melanoma cells. Description: Melanin content assay in UV-induced B16F10 cells. In kind it is cell-based, murine. The note with it: for inhibition of melanin content: 70 μM peptide, UVA/UVB-induced B16F10 cells, triplicate. On the procedure: Cellular melanin content was measured using a modified method by Jegal, et al.. B16F10 cells were seeded at 5 × 10^5 cells/mL in 24-well plates. […] After that, the cells in each well were washed and replaced by PBS. The UV stimulation process was performed by the exposure to UVA (314-400 nm, 3.0 W) and UVB (280-315 nm, 13.6 W) for 22 s. Then, PBS was replaced with media and further incubated for 24 h. The UV-stimulated cells were then trypsinized and centrifuged at 1500 rpm for 5 min. The cell pellet was then dissolved in 2 M NaOH at 60 °C for 1 h to solubilize the melanin. The melanin content was estimated by measuring the absorbance at 405 nm. The melanin content was calculated with the following equation: % Melanin content=(S)/(C)×100, where, S is the OD405 of sample and C represents the OD405 of control. All experiments were performed in triplicate.

Series [2] relates to reactive oxygen species (ROS) level in B16F10 cells. Description: ROS level in B16F10 cells after UV exposure (assay kit). The note with it: 70 μM, UV-exposed B16F10 cells, compared to untreated control group. The series is classed as cell-based, murine. How it is done: (§1) To determine the antioxidant activity, the centrifugation precipitate from Section 4.6 was dissolved in 1 mL of 1 M NaOH containing 10% DMSO at 80 °C for 1 h. Various assay kits, all from Beijing Solarbio Science & Technology Co., Ltd., Beijing, China, were used to measure the quantity of reduced reactive oxygen species (ROS) and the activity of superoxide dismutase (SOD), catalase (CAT), and glutathione peroxidase (GPx) according to the methods by Hu et al..

Series [3] has as its system tyrosinase. To be noted: KNN machine learning model, 425 sequence features; cited from earlier work. From the text: (§2) Table 1 Abalone predicted TIPs by KNN and RF-based predictors and the predicted antioxidant scores by AnOxPePred 1.0 program. | column: Predicted Anti-Tyrosinase Probability / KNN Predictor || Previously, our research team proposed the in-house machine learning-based anti-tyrosinase prediction tool, which provides thousands of potential peptides. The probability scores of all 1079 peptides from KNN-based and RF-based models can be found in the supplementary file of the previous article by Kongsompong et al.. The KNN and RF predictors were trained and tested against 133 peptides with known anti-tyrosinase properties with 97% and 99% accuracy. The predictions of both models were based on the numeric matrix of 425 features calculated from amino acid composition (20 featur ...

Another series relates to catalase (CAT). Description: Antioxidative enzyme activity, catalase (assay kit). In kind it is cell-based, murine. To be noted: 70 μM, UV-exposed B16F10 cells. On the procedure:
as §1

For the next series, the target named is T1, cellular tyrosinase (Mus musculus, UniProt P11344).
T1 construct: the harvested cells were lysed in cell extraction buffer; endogenous in cells; host or cells: B16F10 murine melanoma cells, UVA/UVB-induced
T1 sequence (P11344 19-533): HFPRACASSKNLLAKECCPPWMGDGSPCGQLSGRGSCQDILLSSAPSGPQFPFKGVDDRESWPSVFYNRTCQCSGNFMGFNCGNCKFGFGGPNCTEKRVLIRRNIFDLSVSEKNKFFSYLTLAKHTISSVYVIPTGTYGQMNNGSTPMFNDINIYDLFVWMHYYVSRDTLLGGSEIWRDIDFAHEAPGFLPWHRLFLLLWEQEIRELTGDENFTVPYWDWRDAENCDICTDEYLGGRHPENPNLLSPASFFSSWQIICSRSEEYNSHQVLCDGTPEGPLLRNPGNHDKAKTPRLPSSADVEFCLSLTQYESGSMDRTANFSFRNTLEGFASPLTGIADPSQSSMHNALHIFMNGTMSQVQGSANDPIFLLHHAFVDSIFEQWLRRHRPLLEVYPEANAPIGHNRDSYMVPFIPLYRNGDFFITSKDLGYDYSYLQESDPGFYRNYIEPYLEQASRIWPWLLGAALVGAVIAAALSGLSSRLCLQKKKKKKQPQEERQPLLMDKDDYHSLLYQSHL
The series is described as follows: Intracellular (cellular) tyrosinase activity assay in UV-induced B16F10 cells. The series is classed as cell-based, murine. The note with it: 70 μM peptide, UVA/UVB-induced B16F10 cells, triplicate. How it is done:
Tyrosinase activity was measured based on Dopa oxidase activity by estimating the dopachrome production according to the method by Qiao et al., 2012 [54], with some modifications. B16F10 cells were seeded at 5 × 10^6 cells/mL in 24-well plates. […] Each well was then washed and replaced with PBS 600 μL and induced with UVA (314-400 nm, 3.0 W) and UVB (280-315 nm, 13.6 W) using OSRAM (Ultra-Vitalux, Germany) for 22 s (0.32 J/cm^2). After that, the cells were incubated with medium 600 μL/well for a further 24 h. Then, the cells were trypsinized and the harvested cells were lysed in cell extraction buffer. After normalized protein concentration, 10 μL of each lysate supernatant was aliquoted into a 96-well plate and shaking incubated in dark conditions with 1 mM L-DOPA 90 μL in PBS at 37 °C at 280 rpm for 10 min. The absorbance was measured at 475 nm and all experiments were performed in triplicate to determine the IC50 of the samples. The cellular tyrosinase inhibitory activity was calculated with the following equation: % Cellular tyrosinase inhibition=[(C)-(S)/(C)]×100, where, C are defined as in the previous section.

Series [4] concerns tyrosinase. To be noted: RF machine learning model, 425 sequence features; cited from earlier work.
Text: as §2, with “/ RF” for “/ KNN”

Series [5] deals with superoxide dismutase (SOD). Description: Antioxidative enzyme activity, superoxide dismutase (assay kit). In kind it is cell-based, murine. The note with it: 70 μM, UV-exposed B16F10 cells. How it is done:
as §1

The target of a further series is mushroom tyrosinase (Agaricus bisporus, UniProt C7FF04). Description: Mushroom tyrosinase activity assay (L-DOPA oxidation, diphenolase). In kind it is biochemical. The note with it: L-DOPA substrate, up to 500 μM. How it is done: The inhibitory effect on mushroom tyrosinase was determined spectrophotometrically via L-DOPA oxidation. The reaction mixture consisted of 20 μL of hdTIPs, 140 μL of 100 mM sodium phosphate buffer (pH6.8) and 40 μL of 200 units/mL mushroom tyrosinase (EC 1.14.18.1; Sigma, Saint Louis, USA) placed in a 96-well microplate, then incubated for 10 min. After that, 20 μL of 5mM L-DOPA were mixed into each well over 20 min. Furthermore, the amount of dopachrome produced absorbance was measured at 475 nm. In addition, KA was used as the positive control at the same concentrations and conditions to hdTIPs. This method was modified from Kim et al..
Chain of mushroom tyrosinase (C7FF04 1-392): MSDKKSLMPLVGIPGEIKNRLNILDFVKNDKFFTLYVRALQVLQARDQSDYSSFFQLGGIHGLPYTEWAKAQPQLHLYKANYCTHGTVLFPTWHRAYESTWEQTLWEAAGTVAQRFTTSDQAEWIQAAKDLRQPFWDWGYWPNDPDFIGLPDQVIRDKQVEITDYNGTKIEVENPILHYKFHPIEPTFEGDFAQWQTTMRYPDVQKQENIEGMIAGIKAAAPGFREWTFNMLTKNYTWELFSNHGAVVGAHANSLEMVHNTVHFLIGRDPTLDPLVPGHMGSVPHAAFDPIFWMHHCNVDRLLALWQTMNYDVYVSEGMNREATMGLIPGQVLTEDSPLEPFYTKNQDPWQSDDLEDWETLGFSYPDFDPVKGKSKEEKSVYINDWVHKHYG
Chain of mushroom tyrosinase (G1K3P4 1-150 partner): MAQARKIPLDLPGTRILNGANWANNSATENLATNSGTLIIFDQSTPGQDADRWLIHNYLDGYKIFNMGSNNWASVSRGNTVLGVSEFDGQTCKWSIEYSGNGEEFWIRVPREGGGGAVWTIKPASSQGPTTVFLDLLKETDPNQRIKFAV
The mushroom tyrosinase inhibitory activity was calculated with the following equation: % Mushroom tyrosinase inhibition=[(C)−(S)/(C)]×100, where, C represents the OD475 of control and S is the OD475 of sample. All experiments were performed in triplicate to determine the IC50 of the samples.

Series [6] has as its system B16F10 melanoma cells. The series is described as follows: Cell viability assay (MTT assay). To be noted: 0–1000 μg/mL, 24 h. In kind it is cell-based, murine. On the procedure:
The number of viable cells was determined by the ability of mitochondria to convert MTT to formazan dye. The quantity of formazan formed is proportional to the number of viable cells present and can be measured spectrophotometrically. The method for MTT assay in this study was modified from Zaidi et al.. […] After 24 h incubation, 1 mg/mL of MTT (Invitrogen, Eugene, USA) solution was replaced prior to incubation at 37 °C for 3 h. The formazan precipitates were dissolved by 100 μL of dimethyl sulfoxide (DMSO) and the concentrations were measured at 570 nm in a microplate reader (Synergy H1, BioTek, Santa Clara USA). Cell viability was calculated using the following formula: cell viability (%) = (Asample/Acontrol) × 100, where Asample and Acontrol are the absorbances from the mixture with or without the addition of test sample, respectively.
A general note: Formazan colour is commonly taken as a measure of viable cells.

Broadly, the inhibition is how much of the control response was suppressed. A higher inhibition goes with a response far below the control. In turn, `O=c1cc(CO)occ1O` [kojic acid, reference compound] gave an inhibition at 100 µg/mL with B16F10 melanoma cells [1] (Mus musculus, B16-F10, light or radiation study) of 21.1%.
Consider `C[C@H](NC(=O)[C@H](CC(=O)O)NC(=O)[C@H](CO)NC(=O)[C@H](CO)NC(=O)[C@H](C)NC(=O)[C@@H](N)[C@@H](C)O)C(=O)N[C@@H](Cc1c[nH]c2ccccc12)C(=O)N[C@@H](Cc1ccc(O)cc1)C(=O)N[C@@H](CCCNC(=N)N)C(=O)O` [TIP1] (H-TASSDAWYR-OH; N-terminus and C-terminus assumed), for which the “effect on relative percentage of ROS in melanoma cells” value (“effect on relative percentage of ROS” below) in [2] was “significant reductive effects”.
For the compound `CC(C)[C@H](NC(=O)[C@H](CO)NC(=O)[C@H](CCCNC(=N)N)NC(=O)[C@H](CO)NC(=O)[C@H](CC(N)=O)NC(=O)[C@H](CO)NC(=O)[C@H](CCC(N)=O)NC(=O)[C@@H](N)CO)C(=O)N[C@@H](CO)C(=O)N[C@@H](CCCNC(=N)N)C(=O)O` [RF3] (H-SQSNSRSVSR-OH; N-terminus and C-terminus assumed), in the series on tyrosinase [3], the “Predicted Anti-Tyrosinase Probability KNN Predictor” value is on record as 0.00. In addition, the “effect on CAT activity” value in the series on catalase (CAT) is “affected”. Moreover, the “inhibition of cellular tyrosinase” value against cellular tyrosinase was 5.11%. In addition, the “Predicted Anti-Tyrosinase Probability RF Predictor” value in the series with tyrosinase [4] is recorded as 0.52. For the same compound, the “effect on relative percentage of ROS” value in series [2] is given as “significant reductive effects”. Also, the “effect on SOD activity” value in series [5] is “affected”. Further, in the series on B16F10 melanoma cells [1], the “inhibition of melanin content” value turned out to be 6.09%.
In the case of `CC(C)[C@H](NC(=O)[C@H](CCCNC(=N)N)NC(=O)[C@H](Cc1ccc(O)cc1)NC(=O)[C@H](CC(N)=O)NC(=O)[C@H](CCCCN)NC(=O)[C@@H](N)CCCCN)C(=O)N[C@@H](CO)C(=O)N[C@@H](CCC(=O)O)C(=O)N[C@@H](C)C(=O)N[C@@H](Cc1ccc(O)cc1)C(=O)N[C@@H](CCCCN)C(=O)O` [KNN3] (H-KKNYRVSEAYK-OH; N-terminus and C-terminus assumed), in the series with tyrosinase [3], the “Predicted Anti-Tyrosinase Probability KNN Predictor” value was 1.00. For the same compound, the “Predicted Anti-Tyrosinase Probability RF Predictor” value in the series on tyrosinase [4] is 0.32.
With `CC[C@H](C)[C@H](NC(=O)[C@@H](N)CC(N)=O)C(=O)N[C@@H](CS)C(=O)N[C@@H](CCC(=O)O)C(=O)N[C@@H](CS)C(=O)N[C@@H](CCSC)C(=O)N[C@@H](CCCCN)C(=O)O` [KNN1] (H-NICECMK-OH; N-terminus and C-terminus assumed), the “Predicted Anti-Tyrosinase Probability KNN Predictor” value in the series on tyrosinase [3] is recorded as 1.00. On cellular tyrosinase, the “inhibition of cellular tyrosinase” value was “unable to inhibit”. Also, the “Predicted Anti-Tyrosinase Probability RF Predictor” value in the series on tyrosinase [4] was 0.39. The “inhibition of melanin content” value with B16F10 melanoma cells [1] was “unable to inhibit; also recorded: did not inhibit”.
Consider `C[C@H](NC(=O)[C@@H](N)CO)C(=O)N1CCC[C@H]1C(=O)N[C@H](C(=O)N[C@@H](Cc1ccccc1)C(=O)N[C@@H](Cc1ccccc1)C(=O)N[C@@H](CCCNC(=N)N)C(=O)O)[C@@H](C)O` [RF1] (H-SAPTFFR-OH; N-terminus and C-terminus assumed), for which, in the series on tyrosinase [3], the “Predicted Anti-Tyrosinase Probability KNN Predictor” value was 0.00. Besides, on mushroom tyrosinase, the “inhibitory effect on mushroom tyrosinase (diphenolase activity)” value was “did not inhibit”. In addition, the “inhibition of cellular tyrosinase” value on cellular tyrosinase is 18.26%. The “Predicted Anti-Tyrosinase Probability RF Predictor” value in the series on tyrosinase [4] is listed as 0.63. Moreover, in series [2], the “effect on relative percentage of ROS” value is “significant reductive effects”. In the series with B16F10 melanoma cells [1], the “inhibition of melanin content” value was 10.69%.
For `CC(C)C[C@H](NC(=O)[C@H](CO)NC(=O)[C@H](CO)NC(=O)[C@@H](N)CC(N)=O)C(=O)N[C@@H](CCCNC(=N)N)C(=O)N[C@H](C(=O)N[C@@H](CCC(N)=O)C(=O)N[C@@H](CO)C(=O)N[C@@H](CCCNC(=N)N)C(=O)O)C(C)C` [RF2] (H-NSSLRVQSR-OH; N-terminus and C-terminus assumed), in the series on tyrosinase [3], the “Predicted Anti-Tyrosinase Probability KNN Predictor” value is on record as 0.00. Further, the “inhibitory effect on mushroom tyrosinase (diphenolase activity)” value against mushroom tyrosinase is reported as “did not show any inhibition”. The “Predicted Anti-Tyrosinase Probability RF Predictor” value in the series with tyrosinase [4] is listed as 0.60.
`CSCC[C@H](NC(=O)[C@H](Cc1ccccc1)NC(=O)[C@@H]1CCCN1C(=O)[C@H](C)NC(=O)[C@@H](N)CO)C(=O)N1CCC[C@H]1C(=O)N[C@@H](CC(=O)O)C(=O)N[C@@H](C)C(=O)N[C@@H](Cc1ccccc1)C(=O)N[C@@H](Cc1ccccc1)C(=O)N[C@@H](CCCNC(=N)N)C(=O)N[C@@H](CC(N)=O)C(=O)N[C@H](C(=O)O)C(C)C` [TIP2] (H-SAPFMPDAFFRNV-OH; N-terminus and C-terminus assumed): the “inhibition of cellular tyrosinase” value against cellular tyrosinase came to 3.32%. The “inhibition of melanin content” value in the series on B16F10 melanoma cells [1] was 6.71%.
On to `OC[C@H]1O[C@@H](Oc2ccc(O)cc2)[C@H](O)[C@@H](O)[C@@H]1O` [arbutin, reference compound], for which the “effect on cell proliferation of melanoma cells” value in the series with B16F10 melanoma cells [6] is on record as “did not affect the cell proliferation”.

The values are drawn from publication PMC9965614, “Computer-Aided Virtual Screening and In Vitro Validation of Biomimetic Tyrosinase Inhibitory Peptides from Abalone Peptidome” (International Journal of Molecular Sciences, 2023).
